Source: US20190223443A1, “Methods to Increase Corn Growth” (Valent BioSciences LLC, priority 2015, published 2019)

Key:
Type in all cases: in vivo
Hybrid corn [1] = experiment: Corn trial under conventional tillage, Lozada, Argentina, sprayed at V3, yield at harvest (Example 3); details: for Yield difference from control treatment: difference of the Yield (kg/ha) column; for Yield: untreated 3840
Text: In a corn trial under conventional tillage in Lozada, Argentina, hybrid corn was planted and sprayed at 16 days post-planting at the V3 growth stage.

Hybrid corn [2] = experiment: Final yield, field, Chabás, Santa Fe, Argentina (Example 1); details: untreated 8096
[3] = system: Hybrid 1 and Hybrid 2 corn; experiment: Field study, sprayed at V4, plant height (Examples 5 and 9)
Experimental: This study was conducted and the data analyzed as described above in Example 3 with the following the exceptions. The plants were sprayed at the V4 stage and plant height was measured at seven and 13 days post treatment.
Another study was conducted and the data analyzed as described Example 8, above, with the following the exceptions. The plants were sprayed at the V4 stage and plant height was measured at seven and 13 days post treatment. Results of this study are found in Table 11, below, describing shoot height in centimeters.

corn hybrid B73 X Mo17 = experiment: Greenhouse study Long Grove, Ill., sprayed at V1-V2, change in height and synergy (Example 7)
Experimental: A greenhouse study was conducted at Long Grove, Ill. Seeds of the corn hybrid B73 X Mo17 was sown into potted soil on May 7, 2014. Plants were sprayed at 11 days post sowing (V1-V2) with solutions containing a non-ionic surfactant (0.25%, v/v) and growth was followed for 6 days. GA3 refers to gibberellic acid and ABA refers to abscisic acid. Results of the study described in 3. above can be seen in the following tables describing change in height in centimeters from day of treatment (Table 8) and change in height in centimeters from day of treatment compared to control (Table 9).
Synergy is calculated as follows: […]
Observed difference in height from control/Expected difference in height from control, where expected difference in height from control is the sum of the observed difference in height of each active ingredient applied alone. If the ratio between the experimentally observed efficacy of the mixture and the expected efficacy of the mixture is greater than 1, than synergistic interactions are present in the mixture.

[4] = system: Hybrid 1 and Hybrid 2 corn; experiment: Field study Woodstock, Ill., sprayed at V2, shoot height (Examples 4 and 8); details: for Growth response to spray treatment (in words): sprayed at V2
Experimental: (§1) A field study was conducted at Woodstock, Ill. Seeds of two commercial varieties were sown: Hybrid 1 was northern corn belt variety with 100 days to maturity, while Hybrid 2 was a central corn belt variety with 111 days to maturity. Corn of these two varieties was sown into cool soil on May 7, 2014. Plants were sprayed at V2 with solutions containing a non-ionic surfactant (0.25%, v/v) at 15 gallons of spray solution/acre and growth was followed for 14 days. At seven days and 14 days after treatment shoot heights in centimeters were measured for 60 plants in each replicate.
as §1, with “GA3 refers to gibberellic acid” for “At seven days”, “ABA refers to abscisic acid. Results of the study are found in Table 10 below describing” for “14 days after treatment”, “height” for “heights”, “centimeters.” for “centimeters were measured for 60 plants in each replicate.”

[5] = system: Hybrid 1, Hybrid 2 and Hybrid 3 corn; experiment: Long Grove, Ill., sprayed at V4, distance of growing point relative to soil surface (Examples 6 and 10); details: for Distance of the growing point relative to the soil surface, 7 days post treatment / Distance of the growing point relative to the soil surface, 13 days post treatment / Distance of the growing point relative to the soil surface, 20 days post treatment / Distance of the growing point relative to the soil surface, 4 days post treatment: Table 7; for Distance of growing point relative to soil surface, 7 days post treatment / Distance of growing point relative to soil surface, 13 days post treatment / Distance of growing point relative to soil surface, 20 days post treatment / Distance of growing point relative to soil surface, 4 days post treatment: Table 12
Experimental: In this example, seeds of three varieties were sown at Long Grove, Ill. and were grown under similar conditions as in Examples 3 to 6. Three hybrid corn varieties were grown, Hybrid 1 and 2 as above, and Hybrid 3 which was another central corn belt variety requiring 111 days to maturity.
At the early V-stages, the growing point of the corn stem is below the soil surface and emerges from the soil when the plants are at V5 or later, depending on the variety. In spring, the soil is generally cooler than the air temperature. Therefore, there would be an advantage to getting the growing point above the soil surface to facilitate faster growth.
The plants were sprayed at the V4 growth stage. Plants were dug from the ground at days after spray. Stems of five plants per replicate, three replicates per treatment were split and the distance of the growing point relative to the soil surface was determined in mm.
Seeds of three varieties were sown at Long Grove, Ill. and were grown under similar conditions as in Example 8, above. Three hybrid corn varieties were grown, Hybrid 1 and 2 as described in Examples 8 and 9, above, and Hybrid 3 which was another central corn belt variety requiring 111 days to maturity. The plants were sprayed at the V4 growth stage. Plants were dug from the ground at days after spray. Stems of five plants per replicate, three replicates per treatment were split and the distance of the growing point relative to the soil surface was determined in mm. Results of this study are found in Table 12, below, describing distance of growing point relative to soil surface in millimeters.

[6] = GA3 16 g/ha, mixtures plus ABA as labelled
[7] = GA3 120 ppm, mixtures plus ABA 12 (10:1), 10 (12:1) or 8.6 ppm (14:1)

## C=C1C[C@]23C[C@@]1(O)CC[C@H]2[C@@]12C=C[C@H](O)[C@@](C)(C(=O)O1)[C@H]2[C@@H]3C(=O)O [GA3, gibberellic acid]
Hybrid corn [1]; GA3 8 g/ha
  Yield difference from control treatment: 370
  Yield: 4210 kg/ha
Hybrid corn [1]; [6]
  Yield difference from control treatment: 345
  Yield: 4185 kg/ha
Hybrid corn [2]; GA3 8 g/ha
  Yield: 8355 kg/ha
Hybrid corn [2]; [6]
  Yield: 8769 kg/ha
[3]; Hybrid 1, Table 6, control 0:0 76.50
  Plant height, 7 days post treatment: 78.60 cm
[3]; Hybrid 1, Table 6, control 0:0 117.61
  Plant height, 13 days post treatment: 116.44 cm
[3]; Hybrid 1, Table 11, control 0:0 76.50
  Shoot height, 7 days post treatment: 78.60 cm
[3]; Hybrid 1, Table 11, control 0:0 117.61
  Shoot height, 13 days post treatment: 116.44 cm
[3]; Hybrid 2, Table 6, control 0:0 63.76
  Plant height, 7 days post treatment: 68.25 cm
[3]; Hybrid 2, Table 6, control 0:0 98.71
  Plant height, 13 days post treatment: 102.40 cm
[3]; Hybrid 2, Table 11, control 0:0 63.76
  Shoot height, 7 days post treatment: 68.25 cm
[3]; Hybrid 2, Table 11, control 0:0 98.71
  Shoot height, 13 days post treatment: 102.40 cm
Corn hybrid B73 X Mo17; [7]
  Observed change in height from day of treatment compared to control, 2 days post treatment: 3.13 cm
  Observed change in height from day of treatment compared to control, 4 days post treatment: 4.97 cm
  Observed change in height from day of treatment compared to control, 6 days post treatment: 7.21 cm
Corn hybrid B73 X Mo17; GA3 120 ppm, mixtures plus ABA 12 (10:1), 10 (12:1) or 8.6 ppm (14:1), control 9.74
  Change in height from day of treatment, 2 days post treatment: 12.87 cm
Corn hybrid B73 X Mo17; GA3 120 ppm, mixtures plus ABA 12 (10:1), 10 (12:1) or 8.6 ppm (14:1), control 22.59
  Change in height from day of treatment, 4 days post treatment: 27.56 cm
Corn hybrid B73 X Mo17; GA3 120 ppm, mixtures plus ABA 12 (10:1), 10 (12:1) or 8.6 ppm (14:1), control 43.03
  Change in height from day of treatment, 6 days post treatment: 50.24 cm
Corn hybrid B73 X Mo17; applied alone, Tables 8 and 9
  Height of the corn compared to the control (in words): increased the height
[4]; Hybrid 1, Table 5, control 0:0 37.75
  Shoot height, 7 days post treatment: 36.07 cm
[4]; Hybrid 1, Table 5, control 0:0 57.90
  Shoot height, 14 days post treatment: 57.08 cm
[4]; Hybrid 1, Table 10, control 0:0 37.75
  Shoot height, 7 days post treatment: 36.07 cm
[4]; Hybrid 1, Table 10, control 0:0 57.90
  Shoot height, 14 days post treatment: 57.08 cm
[4]; Hybrid 1
  Growth response to spray treatment (in words): did not respond
[4]; Hybrid 2, Table 5, control 0:0 29.56
  Shoot height, 7 days post treatment: 31.33 cm
[4]; Hybrid 2, Table 5, control 0:0 50.16
  Shoot height, 14 days post treatment: 51.20 cm
[4]; Hybrid 2, Table 10, control 0:0 29.56
  Shoot height, 7 days post treatment: 31.33 cm
[4]; Hybrid 2, Table 10, control 0:0 50.16
  Shoot height, 14 days post treatment: 51.20 cm
[4]; Hybrid 2
  Growth response to spray treatment (in words): growth increased
[5]; Hybrid 1, control 0:0 17.47
  Distance of the growing point relative to the soil surface, 7 days post treatment: 34.53 mm
  Distance of growing point relative to soil surface, 7 days post treatment: 34.53 mm
[5]; Hybrid 1, control 0:0 166.40
  Distance of the growing point relative to the soil surface, 13 days post treatment: 163.27 mm
  Distance of growing point relative to soil surface, 13 days post treatment: 163.27 mm
[5]; Hybrid 1, control 0:0 644.00
  Distance of the growing point relative to the soil surface, 20 days post treatment: 603.80 mm
  Distance of growing point relative to soil surface, 20 days post treatment: 603.80 mm
[5]; Hybrid 1, control 0:0 −1.13
  Distance of the growing point relative to the soil surface, 4 days post treatment: 4.20 mm
  Distance of growing point relative to soil surface, 4 days post treatment: 4.20 mm
[5]; Hybrid 2, control 0:0 0.80
  Distance of the growing point relative to the soil surface, 4 days post treatment: 1.87 mm
  Distance of growing point relative to soil surface, 4 days post treatment: 1.87 mm
[5]; Hybrid 2, control 0:0 18.80
  Distance of the growing point relative to the soil surface, 7 days post treatment: 24.07 mm
  Distance of growing point relative to soil surface, 7 days post treatment: 24.07 mm
[5]; Hybrid 2, control 0:0 128.87
  Distance of the growing point relative to the soil surface, 13 days post treatment: 130.93 mm
  Distance of growing point relative to soil surface, 13 days post treatment: 130.93 mm
[5]; Hybrid 2, control 0:0 517.13
  Distance of the growing point relative to the soil surface, 20 days post treatment: 515.53 mm
  Distance of growing point relative to soil surface, 20 days post treatment: 515.53 mm
[5]; Hybrid 3, control 0:0 0.53
  Distance of the growing point relative to the soil surface, 4 days post treatment: 3.67 mm
  Distance of growing point relative to soil surface, 4 days post treatment: 3.67 mm
[5]; Hybrid 3, control 0:0 25.60
  Distance of the growing point relative to the soil surface, 7 days post treatment: 27.87 mm
  Distance of growing point relative to soil surface, 7 days post treatment: 27.87 mm
[5]; Hybrid 3, control 0:0 147.73
  Distance of the growing point relative to the soil surface, 13 days post treatment: 164.67 mm
  Distance of growing point relative to soil surface, 13 days post treatment: 164.67 mm
[5]; Hybrid 3, control 0:0 619.33
  Distance of the growing point relative to the soil surface, 20 days post treatment: 653.53 mm
  Distance of growing point relative to soil surface, 20 days post treatment: 653.53 mm
